Laboratory results as given in patent US20250064941A1, “SIGLEC LIGANDS, CONJUGATES, AND METHODS OF USE THEREOF” (Osprey Biopharmaceuticals, Inc., priority 2023, published 2025).

What was measured:
[1] = molecular target: T1, human Siglec-2/CD22 protein (Homo sapiens, UniProt P20273); assay: SPR binding affinity to human CD22; settings: steady-state analysis
T1 construct: purchased Acro Biosystems SI2-H82E3
T1 sequence (P20273 20-847): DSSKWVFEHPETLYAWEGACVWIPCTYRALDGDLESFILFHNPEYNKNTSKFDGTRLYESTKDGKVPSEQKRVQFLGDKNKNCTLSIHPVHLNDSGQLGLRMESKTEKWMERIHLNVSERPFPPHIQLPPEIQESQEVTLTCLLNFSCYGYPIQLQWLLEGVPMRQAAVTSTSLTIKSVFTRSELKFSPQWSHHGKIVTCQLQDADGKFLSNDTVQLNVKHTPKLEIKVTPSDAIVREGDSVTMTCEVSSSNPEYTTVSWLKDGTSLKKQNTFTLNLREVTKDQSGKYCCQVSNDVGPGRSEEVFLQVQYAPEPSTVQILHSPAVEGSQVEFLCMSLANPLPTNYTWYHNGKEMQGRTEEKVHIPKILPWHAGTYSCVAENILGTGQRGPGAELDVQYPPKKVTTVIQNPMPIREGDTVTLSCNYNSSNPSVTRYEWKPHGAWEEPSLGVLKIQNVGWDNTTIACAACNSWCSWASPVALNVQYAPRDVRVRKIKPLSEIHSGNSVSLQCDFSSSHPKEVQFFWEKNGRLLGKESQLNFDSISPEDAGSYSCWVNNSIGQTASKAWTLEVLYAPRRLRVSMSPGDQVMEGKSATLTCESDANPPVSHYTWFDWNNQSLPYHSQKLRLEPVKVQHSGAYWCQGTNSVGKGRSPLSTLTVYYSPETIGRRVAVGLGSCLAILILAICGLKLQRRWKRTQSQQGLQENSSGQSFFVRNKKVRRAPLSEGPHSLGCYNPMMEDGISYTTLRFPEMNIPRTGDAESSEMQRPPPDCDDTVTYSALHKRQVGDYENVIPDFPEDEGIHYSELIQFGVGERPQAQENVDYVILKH
In short: (§1)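 Biotinylated CD22 desialylated with SialoExo (4 h, 37° C) before capture on streptavidin chip. Running buffer 10 mM HEPES, 150 mM NaCl, 0.05% Tween-20, pH 7.5, 1% DMSO, with DMSO solvent correction; 120 s dissociation. Compound affinities from steady-state analysis.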

[2] = molecular target: T2, mouse Siglec-2-Fc-Avi (CD22) (Mus musculus, UniProt P35329); assay: SPR binding affinity to mouse CD22; settings: steady-state analysis
T2 construct: made in house
T2 sequence (P35329 22-708 limits assumed): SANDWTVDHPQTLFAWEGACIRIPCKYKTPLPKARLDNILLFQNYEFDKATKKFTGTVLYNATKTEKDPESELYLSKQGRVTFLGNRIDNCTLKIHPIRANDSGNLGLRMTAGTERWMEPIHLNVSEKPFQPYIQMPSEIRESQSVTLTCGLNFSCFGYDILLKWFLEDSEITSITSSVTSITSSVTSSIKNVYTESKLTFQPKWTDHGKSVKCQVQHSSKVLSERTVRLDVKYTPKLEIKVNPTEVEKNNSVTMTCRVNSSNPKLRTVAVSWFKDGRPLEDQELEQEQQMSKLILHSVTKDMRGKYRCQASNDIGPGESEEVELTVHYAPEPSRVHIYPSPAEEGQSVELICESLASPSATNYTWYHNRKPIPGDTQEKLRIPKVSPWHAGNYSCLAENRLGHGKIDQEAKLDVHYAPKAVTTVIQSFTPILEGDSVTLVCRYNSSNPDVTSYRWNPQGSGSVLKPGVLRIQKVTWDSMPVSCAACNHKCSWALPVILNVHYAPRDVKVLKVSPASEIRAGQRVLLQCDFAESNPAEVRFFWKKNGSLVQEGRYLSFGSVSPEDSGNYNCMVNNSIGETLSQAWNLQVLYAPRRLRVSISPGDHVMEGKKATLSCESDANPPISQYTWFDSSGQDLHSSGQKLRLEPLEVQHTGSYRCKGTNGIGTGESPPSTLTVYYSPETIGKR
In short: as §1

cynomolgus Siglec-2/CD22 = cynomolgus Siglec-2/CD22 (Macaca fascicularis, UniProt A0A2K5WCZ6); assay: biochemical; format: binding; settings: SPR, steady-state analysis; read-out: Affinity cyno CD22
Sequence of cynomolgus Siglec-2/CD22 (A0A2K5WCZ6 entry or part of it): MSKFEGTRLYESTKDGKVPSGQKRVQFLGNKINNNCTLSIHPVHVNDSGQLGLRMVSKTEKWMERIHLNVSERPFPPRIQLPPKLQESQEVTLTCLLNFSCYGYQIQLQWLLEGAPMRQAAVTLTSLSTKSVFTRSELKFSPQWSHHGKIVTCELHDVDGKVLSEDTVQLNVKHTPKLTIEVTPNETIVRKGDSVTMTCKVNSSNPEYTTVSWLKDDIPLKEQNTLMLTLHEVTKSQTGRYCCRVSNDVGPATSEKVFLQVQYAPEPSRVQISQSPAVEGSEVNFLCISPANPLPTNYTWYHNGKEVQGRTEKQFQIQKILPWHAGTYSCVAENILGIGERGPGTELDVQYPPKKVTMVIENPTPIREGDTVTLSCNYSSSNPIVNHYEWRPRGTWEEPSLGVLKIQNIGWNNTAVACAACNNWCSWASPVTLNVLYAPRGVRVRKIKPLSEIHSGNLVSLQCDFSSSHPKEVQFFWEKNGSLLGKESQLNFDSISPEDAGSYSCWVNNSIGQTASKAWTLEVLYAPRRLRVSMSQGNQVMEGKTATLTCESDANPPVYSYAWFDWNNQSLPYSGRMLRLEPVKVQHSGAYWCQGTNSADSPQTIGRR
In short: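 SPR with desialylated (SialoExo, 4 h, 37° C.) cynomolgus CD22 amine-coupled to a CM5 chip. Running buffer 10 mM HEPES, 150 mM NaCl, 0.05% Tween-20, pH 7.5, 1% DMSO, with solvent correction; 120 s dissociation. Affinities from steady-state analysis.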

Kd [1] [nM] | Kd [2] [nM] | Kd (cynomolgus Siglec-2/CD22) [nM] | Structure (SMILES)
< 1000 | 1000 to 10000 | < 1000 | C#CCCOc1ccc(CO[C@]2(C(=O)O)C[C@H](O)[C@@H](NC(=O)CO)[C@H]([C@H](O)[C@H](O)CNC(=O)Cc3ccc(O)c(Cl)c3)O2)cc1 [Compound 136, (2R,4S,5R,6R)-2-((4-(but-3-yn-1-yloxy)benzyl)oxy)-6-((1R,2R)-3-(2-(3-chloro-4-hydroxyphenyl)acetamido)-1,2-dihydroxypropyl)-4-hydroxy-5-(2-hydroxyacetamido)tetrahydro-2H-pyran-2-carboxylic acid]
< 1000 | < 1000 | < 1000 | CC(=O)NCCOCCOCCOCCOCCNc1c(NCCCCCCO[C@]2(C(=O)O)C[C@H](O)[C@@H](NC(=O)CO)[C@H]([C@H](O)[C@H](O)CNC(=O)Cc3ccc(Cl)cc3)O2)c(=O)c1=O [Compound 240, (2R,4S,5R,6R)-6-((1R,2R)-3-(2-(4-chlorophenyl)acetamido)-1,2-dihydroxypropyl)-2-((6-((3,4-dioxo-2-((2-oxo-6,9,12,15-tetraoxa-3-azaheptadecan-17-yl)amino)cyclobut-1-en-1-yl)amino)hexyl)oxy)-4-hydroxy-5-(2-hydroxyacetamido) tetrahydro-2H-pyran-2-carboxylic acid]
1000 to 10000 | 1000 to 10000 | < 1000 | C#CCOCCCCCCO[C@]1(C(=O)O)C[C@H](O)[C@@H](NC(=O)C(C)O)[C@H]([C@H](O)[C@H](O)CNC(=O)Cc2ccc(Cl)cc2)O1 (stereo partly drawn) [Compound 183, (2R,4S,5R,6R)-6-((1R,2R)-3-(2-(4-chlorophenyl)acetamido)-1,2-dihydroxypropyl)-4-hydroxy-5-(2-hydroxypropanamido)-2-((6-(prop-2-yn-1-yloxy)hexyl)oxy)tetrahydro-2H-pyran-2-carboxylic acid]
1000 to 10000 | 1000 to 10000 | 1000 to 10000 | C#CCOCCCCCCO[C@]1(C(=O)O)C[C@H](O)[C@@H](NC(=O)CN)[C@H]([C@H](O)[C@H](O)CNC(=O)Cc2ccc(Cl)cc2)O1 [Compound 184, (2R,4S,5R,6R)-5-(2-aminoacetamido)-6-((1R,2R)-3-(2-(4-chlorophenyl)acetamido)-1,2-dihydroxypropyl)-4-hydroxy-2-((6-(prop-2-yn-1-yloxy)hexyl)oxy)tetrahydro-2H-pyran-2-carboxylic acid]
< 1000 | 1000 to 10000 | < 1000 | C#CCCOc1ccc(CO[C@]2(C(=O)O)C[C@H](O)[C@@H](NC(=O)CO)[C@H]([C@H](O)[C@H](O)CNC(=O)Cc3cccc(Cl)c3)O2)cc1 [Compound 123, (2R,4S,5R,6R)-2-((4-(but-3-yn-1-yloxy)benzyl)oxy)-6-((1R,2R)-3-(2-(3-chlorophenyl)acetamido)-1,2-dihydroxypropyl)-4-hydroxy-5-(2-hydroxyacetamido)tetrahydro-2H-pyran-2-carboxylic acid]
1000 to 10000 | 1000 to 10000 | 1000 to 10000 | C#CCOCCCCCCO[C@]1(C(=O)O)C[C@H](O)[C@@H](NC(=O)NCC(F)(F)F)[C@H]([C@H](O)[C@H](O)CNC(=O)Cc2ccc(Cl)cc2)O1 [Compound 193, (2R,4S,5R,6R)-6-((1R,2R)-3-(2-(4-chlorophenyl)acetamido)-1,2-dihydroxypropyl)-4-hydroxy-2-((6-(prop-2-yn-1-yloxy)hexyl)oxy)-5-(3-(2,2,2-trifluoroethyl)ureido)tetrahydro-2H-pyran-2-carboxylic acid]

Further lines, the compound ahead of its results:

Structure (SMILES) | Kd [1] [nM] | Kd [2] [nM] | Kd (cynomolgus Siglec-2/CD22) [nM]
C#CCOc1cccc(-c2cn([C@]3(C(=O)O)C[C@H](O)[C@@H](NC(=O)CO)[C@H]([C@H](O)[C@H](O)CNC(=O)Cc4ccc(-c5ccc(O)cc5)cc4)O3)nn2)c1 [Compound 60, (2R,4S,5R,6R)-6-((1R,2R)-1,2-dihydroxy-3-(2-(4′-hydroxy-[1,1′-biphenyl]-4-yl)acetamido)propyl)-4-hydroxy-5-(2-hydroxyacetamido)-2-(4-(3-(prop-2-yn-1-yloxy)phenyl)-1H-1,2,3-triazol-1-yl)tetrahydro-2H-pyran-2-carboxylic acid] | 1000 to 10000 | 1000 to 10000 | 1000 to 10000
O=C(Cc1ccc(Cl)cc1)NC[C@@H](O)[C@@H](O)[C@@H]1O[C@@](OCCCCCCNC(=O)c2ccccc2)(C(=O)O)C[C@H](O)[C@H]1NC(=O)CO [Compound 108, (2R,4S,5R,6R)-2-((6-benzamidohexyl)oxy)-6-((1R,2R)-3-(2-(4-chlorophenyl)acetamido)-1,2-dihydroxypropyl)-4-hydroxy-5-(2-hydroxyacetamido)tetrahydro-2H-pyran-2-carboxylic acid] | < 1000 | < 1000 | < 1000
C#CCCCCCCO[C@]1(C(=O)O)C[C@H](O)[C@@H](NC(=O)CO)[C@H]([C@H](O)[C@H](O)CNC(=O)c2cccc(Oc3ccccc3)c2)O1 [Compound 40, (2R,4S,5R,6R)-6-((1R,2R)-1,2-dihydroxy-3-(3-phenoxybenzamido)propyl)-4-hydroxy-5-(2-hydroxyacetamido)-2-(oct-7-yn-1-yloxy) tetrahydro-2H-pyran-2-carboxylic acid] | < 1000 | 1000 to 10000 | < 1000
C#Cc1ccc(CO[C@]2(C(=O)O)C[C@H](O)[C@@H](NC(=O)CO)[C@H]([C@H](O)[C@H](O)CNC(=O)Cc3ccc(Cl)cc3)O2)cc1 [Compound 114, (2R,4S,5R,6R)-6-((1R,2R)-3-(2-(4-chlorophenyl)acetamido)-1,2-dihydroxypropyl)-2-((4-ethynylbenzyl)oxy)-4-hydroxy-5-(2-hydroxyacetamido)tetrahydro-2H-pyran-2-carboxylic acid] | < 1000 | < 1000 | < 1000
C#CCCOCCOCCO[C@]1(C(=O)O)C[C@H](O)[C@@H](NC(=O)CO)[C@H]([C@H](O)[C@H](O)CNC(=O)Cc2ccc(-c3ccc(O)cc3)cc2)O1 [Compound 83, (2R,4S,5R,6R)-2-(2-(2-(but-3-yn-1-yloxy)ethoxy)ethoxy)-6-((1R,2R)-1,2-dihydroxy-3-(2-(4′-hydroxy-[1,1′-biphenyl]-4-yl)acetamido)propyl)-4-hydroxy-5-(2-hydroxyacetamido)tetrahydro-2H-pyran-2-carboxylic acid] | < 1000 | 1000 to 10000 | 1000 to 10000
C#CCCOc1ccc(CO[C@]2(C(=O)O)C[C@H](O)[C@@H](NC(=O)CO)[C@H]([C@H](O)[C@H](O)CNC(=O)Cc3ccc4cn[nH]c4c3)O2)cc1 [Compound 10, (2R,4S,5R,6R)-6-((1R,2R)-3-(2-(1H-indazol-6-yl)acetamido)-1,2-dihydroxypropyl)-2-((4-(but-3-yn-1-yloxy)benzyl)oxy)-4-hydroxy-5-(2-hydroxyacetamido)tetrahydro-2H-pyran-2-carboxylic acid] | 1000 to 10000 | 1000 to 10000 | 1000 to 10000
C#CCOCCOCCO[C@]1(C(=O)O)C[C@H](O)[C@@H](NC(=O)CC#N)[C@H]([C@H](O)[C@H](O)CNC(=O)Cc2ccc(-c3ccc(O)cc3)cc2)O1 [Compound 58, (2R,4S,5R,6R)-5-(2-cyanoacetamido)-6-((1R,2R)-1,2-dihydroxy-3-(2-(4′-hydroxy-[1,1′-biphenyl]-4-yl)acetamido)propyl)-4-hydroxy-2-(2-(2-(prop-2-yn-1-yloxy)ethoxy)ethoxy)tetrahydro-2H-pyran-2-carboxylic acid] | 1000 to 10000 | 1000 to 10000 | 1000 to 10000
